According to PubChem BioAssay (NCI):
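48-hour exposure; five concentrations; linearly interpolated endpoints. TGI: concentration producing complete growth inhibition.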

Legend:
Assay in all cases: DTP human tumour cell line panel, 48 h
NCI-H23 lung = tested on: NCI-H23 lung
NCI-H460 lung = tested on: NCI-H460 lung
U251 CNS = tested on: U251 CNS
SN12C renal = tested on: SN12C renal
SF-539 CNS = tested on: SF-539 CNS
CCRF-CEM leukemia = tested on: CCRF-CEM leukemia
UO-31 renal = tested on: UO-31 renal
NCI-H226 lung = tested on: NCI-H226 lung
SF-295 CNS = tested on: SF-295 CNS
OVCAR-3 ovarian = tested on: OVCAR-3 ovarian
SK-MEL-28 melanoma = tested on: SK-MEL-28 melanoma
786-0 renal = tested on: 786-0 renal
DMS 114 small cell lung = tested on: DMS 114 small cell lung
OVCAR-4 ovarian = tested on: OVCAR-4 ovarian
OVCAR-8 ovarian = tested on: OVCAR-8 ovarian
A549 NSCLC = tested on: A549 NSCLC
LXFL 529 NSCLC = tested on: LXFL 529 NSCLC
HOP-18 NSCLC = tested on: HOP-18 NSCLC
A498 renal = tested on: A498 renal
SK-MEL-5 melanoma = tested on: SK-MEL-5 melanoma
SNB-19 CNS = tested on: SNB-19 CNS
RPMI-8226 leukemia = tested on: RPMI-8226 leukemia
ACHN renal = tested on: ACHN renal
SF-268 CNS = tested on: SF-268 CNS
K-562 leukemia = tested on: K-562 leukemia
UACC-62 melanoma = tested on: UACC-62 melanoma
MALME-3M melanoma = tested on: MALME-3M melanoma
KM20L2 colon = tested on: KM20L2 colon
OVCAR-5 ovarian = tested on: OVCAR-5 ovarian
NCI-H522 lung = tested on: NCI-H522 lung
LOX IMVI melanoma = tested on: LOX IMVI melanoma
SK-MEL-2 melanoma = tested on: SK-MEL-2 melanoma
CAKI-1 renal = tested on: CAKI-1 renal
SW-620 colon = tested on: SW-620 colon
SNB-78 CNS = tested on: SNB-78 CNS
IGROV1 ovarian = tested on: IGROV1 ovarian
UACC-257 melanoma = tested on: UACC-257 melanoma
COLO 205 colon = tested on: COLO 205 colon
RXF 393 renal = tested on: RXF 393 renal
HOP-92 NSCLC = tested on: HOP-92 NSCLC
HCT-15 colon = tested on: HCT-15 colon
HL-60(TB) leukemia = tested on: HL-60(TB) leukemia
DMS 273 small cell lung = tested on: DMS 273 small cell lung
HT29 colon = tested on: HT29 colon
M14 melanoma = tested on: M14 melanoma
HCT-116 colon = tested on: HCT-116 colon
SK-OV-3 ovarian = tested on: SK-OV-3 ovarian
M19-MEL melanoma = tested on: M19-MEL melanoma
EKVX NSCLC = tested on: EKVX NSCLC
KM12 colon = tested on: KM12 colon
MOLT-4 leukemia = tested on: MOLT-4 leukemia
SNB-75 CNS = tested on: SNB-75 CNS
TK-10 renal = tested on: TK-10 renal
SR leukemia = tested on: SR leukemia
HOP-62 NSCLC = tested on: HOP-62 NSCLC
MDA-N = tested on: MDA-N
MDA-MB-435 = tested on: MDA-MB-435
MDA-MB-231 breast = tested on: MDA-MB-231 breast
DU-145 prostate = tested on: DU-145 prostate
PC-3 prostate = tested on: PC-3 prostate
T-47D breast = tested on: T-47D breast
HCC-2998 colon = tested on: HCC-2998 colon
MCF7 breast = tested on: MCF7 breast
BT-549 breast = tested on: BT-549 breast
HS 578T breast = tested on: HS 578T breast
NCI/ADR-RES ovarian = tested on: NCI/ADR-RES ovarian
DLD-1 colon = tested on: DLD-1 colon

SMILES: COC1OC(C)C(O)CC1OS(=O)(=O)c1ccc(C)cc1 (stereo unspecified)
- TGI (NCI-H23 lung): > 100 µM
- TGI (NCI-H460 lung): > 100 µM
- TGI (U251 CNS): > 100 µM
- TGI (SN12C renal): > 100 µM
- TGI (SF-539 CNS): > 100 µM
- TGI (CCRF-CEM leukemia): > 100 µM
- TGI (UO-31 renal): > 100 µM
- TGI (NCI-H226 lung): > 100 µM
- TGI (SF-295 CNS): > 100 µM
- TGI (OVCAR-3 ovarian): > 100 µM
- TGI (SK-MEL-28 melanoma): > 100 µM
- TGI (786-0 renal): > 100 µM
- TGI (DMS 114 small cell lung): > 100 µM
- TGI (OVCAR-4 ovarian): > 100 µM
- TGI (OVCAR-8 ovarian): > 100 µM
- TGI (A549 NSCLC): > 100 µM
- TGI (LXFL 529 NSCLC): > 100 µM
- TGI (HOP-18 NSCLC): > 100 µM
- TGI (A498 renal): > 100 µM
- TGI (SK-MEL-5 melanoma): > 100 µM
- TGI (SNB-19 CNS): > 100 µM
- TGI (RPMI-8226 leukemia): > 100 µM
- TGI (ACHN renal): > 100 µM
- TGI (SF-268 CNS): > 100 µM
- TGI (K-562 leukemia): > 100 µM
- TGI (UACC-62 melanoma): > 100 µM
- TGI (MALME-3M melanoma): > 100 µM
- TGI (KM20L2 colon): > 100 µM
- TGI (OVCAR-5 ovarian): > 100 µM
- TGI (NCI-H522 lung): > 100 µM
- TGI (LOX IMVI melanoma): > 100 µM
- TGI (SK-MEL-2 melanoma): > 100 µM
- TGI (CAKI-1 renal): > 100 µM
- TGI (SW-620 colon): > 100 µM
- TGI (SNB-78 CNS): > 100 µM
- TGI (IGROV1 ovarian): > 100 µM
- TGI (UACC-257 melanoma): > 100 µM
- TGI (COLO 205 colon): > 100 µM
- TGI (RXF 393 renal): > 100 µM
- TGI (HOP-92 NSCLC): > 100 µM
- TGI (HCT-15 colon): > 100 µM
- TGI (HL-60(TB) leukemia): > 100 µM
- TGI (DMS 273 small cell lung): > 100 µM
- TGI (HT29 colon): > 100 µM
- TGI (M14 melanoma): > 100 µM
- TGI (HCT-116 colon): > 100 µM
- TGI (SK-OV-3 ovarian): > 100 µM
- TGI (M19-MEL melanoma): > 100 µM
- TGI (EKVX NSCLC): > 100 µM
- TGI (KM12 colon): > 100 µM
- TGI (MOLT-4 leukemia): > 100 µM
- TGI (SNB-75 CNS): > 100 µM
- TGI (TK-10 renal): > 100 µM

SMILES: COc1ccc(-c2c(CN3CCOCC3)sc3nc4ccccc4n23)cc1
- TGI (NCI-H23 lung): > 100 µM
- TGI (NCI-H460 lung): 53.5 µM
- TGI (U251 CNS): 41.5 µM
- TGI (SN12C renal): > 100 µM
- TGI (SR leukemia): 15.1 µM
- TGI (SF-539 CNS): 41.7 µM
- TGI (HOP-62 NSCLC): > 100 µM
- TGI (CCRF-CEM leukemia): 56.2 µM
- TGI (UO-31 renal): > 100 µM
- TGI (NCI-H226 lung): > 79.8 µM
- TGI (SF-295 CNS): > 100 µM
- TGI (OVCAR-3 ovarian): > 80.9 µM
- TGI (MDA-N): 5.38 µM
- TGI (SK-MEL-28 melanoma): 98.6 µM
- TGI (786-0 renal): > 76.8 µM
- TGI (OVCAR-4 ovarian): > 100 µM
- TGI (OVCAR-8 ovarian): > 100 µM
- TGI (A549 NSCLC): > 86.1 µM
- TGI (MDA-MB-435): 14.4 µM
- TGI (A498 renal): 72.4 µM
- TGI (SK-MEL-5 melanoma): 98.8 µM
- TGI (SNB-19 CNS): > 57.1 µM
- TGI (RPMI-8226 leukemia): 23.4 µM
- TGI (MDA-MB-231 breast): > 68.9 µM
- TGI (ACHN renal): > 100 µM
- TGI (SF-268 CNS): 98.2 µM
- TGI (K-562 leukemia): > 28.7 µM
- TGI (DU-145 prostate): > 100 µM
- TGI (UACC-62 melanoma): > 100 µM
- TGI (MALME-3M melanoma): > 100 µM
- TGI (OVCAR-5 ovarian): > 74.7 µM
- TGI (NCI-H522 lung): > 20.2 µM
- TGI (PC-3 prostate): > 67.4 µM
- TGI (LOX IMVI melanoma): > 100 µM
- TGI (SK-MEL-2 melanoma): > 100 µM
- TGI (CAKI-1 renal): > 100 µM
- TGI (SW-620 colon): > 100 µM
- TGI (T-47D breast): > 100 µM
- TGI (HCC-2998 colon): 99.2 µM
- TGI (IGROV1 ovarian): > 86.8 µM
- TGI (UACC-257 melanoma): > 100 µM
- TGI (COLO 205 colon): 49.4 µM
- TGI (MCF7 breast): > 100 µM
- TGI (RXF 393 renal): > 47.5 µM
- TGI (BT-549 breast): > 100 µM
- TGI (HOP-92 NSCLC): > 100 µM
- TGI (HCT-15 colon): > 95 µM
- TGI (HL-60(TB) leukemia): > 73.2 µM
- TGI (HT29 colon): 31.1 µM
- TGI (M14 melanoma): > 100 µM
- TGI (HS 578T breast): > 69.7 µM
- TGI (HCT-116 colon): > 57 µM
- TGI (NCI/ADR-RES ovarian): > 42.8 µM
- TGI (SK-OV-3 ovarian): 94.9 µM
- TGI (EKVX NSCLC): > 57.4 µM
- TGI (KM12 colon): > 100 µM
- TGI (MOLT-4 leukemia): > 100 µM
- TGI (SNB-75 CNS): > 100 µM
- TGI (TK-10 renal): > 100 µM

SMILES: O=C(c1ccco1)N(C(=S)N1CCN(c2ccccn2)CC1)C1CCCCC1
- TGI (NCI-H23 lung): > 100 µM
- TGI (NCI-H460 lung): > 100 µM
- TGI (U251 CNS): > 100 µM
- TGI (SN12C renal): > 100 µM
- TGI (SR leukemia): > 100 µM
- TGI (SF-539 CNS): > 100 µM
- TGI (HOP-62 NSCLC): > 100 µM
- TGI (CCRF-CEM leukemia): > 100 µM
- TGI (UO-31 renal): > 100 µM
- TGI (NCI-H226 lung): > 100 µM
- TGI (SF-295 CNS): > 100 µM
- TGI (OVCAR-3 ovarian): > 100 µM
- TGI (SK-MEL-28 melanoma): > 100 µM
- TGI (786-0 renal): > 100 µM
- TGI (DMS 114 small cell lung): > 100 µM
- TGI (OVCAR-4 ovarian): > 100 µM
- TGI (OVCAR-8 ovarian): > 100 µM
- TGI (A549 NSCLC): > 100 µM
- TGI (LXFL 529 NSCLC): > 100 µM
- TGI (HOP-18 NSCLC): > 100 µM
- TGI (SK-MEL-5 melanoma): > 100 µM
- TGI (SNB-19 CNS): > 100 µM
- TGI (RPMI-8226 leukemia): > 100 µM
- TGI (ACHN renal): > 100 µM
- TGI (SF-268 CNS): > 100 µM
- TGI (K-562 leukemia): > 100 µM
- TGI (UACC-62 melanoma): > 100 µM
- TGI (MALME-3M melanoma): > 100 µM
- TGI (KM20L2 colon): > 100 µM
- TGI (OVCAR-5 ovarian): > 100 µM
- TGI (NCI-H522 lung): > 100 µM
- TGI (DLD-1 colon): > 100 µM
- TGI (LOX IMVI melanoma): > 100 µM
- TGI (SK-MEL-2 melanoma): > 100 µM
- TGI (CAKI-1 renal): > 100 µM
- TGI (SW-620 colon): > 100 µM
- TGI (SNB-78 CNS): > 100 µM
- TGI (IGROV1 ovarian): > 100 µM
- TGI (UACC-257 melanoma): > 100 µM
- TGI (COLO 205 colon): > 100 µM
- TGI (RXF 393 renal): > 100 µM
- TGI (HOP-92 NSCLC): > 100 µM
- TGI (HCT-15 colon): > 100 µM
- TGI (HL-60(TB) leukemia): > 100 µM
- TGI (DMS 273 small cell lung): > 100 µM
- TGI (HT29 colon): > 100 µM
- TGI (M14 melanoma): > 100 µM
- TGI (HCT-116 colon): > 100 µM
- TGI (SK-OV-3 ovarian): > 100 µM
- TGI (M19-MEL melanoma): > 100 µM
- TGI (KM12 colon): > 100 µM
- TGI (MOLT-4 leukemia): > 100 µM
- TGI (SNB-75 CNS): > 100 µM
- TGI (TK-10 renal): > 100 µM
